Literature values as cited in patent US20180273582A1, “SMALL MOLECULE AFFINITY MEMBRANE PURIFICATION SYSTEMS AND USES THEREOF” (UNIVERSITY OF NOTRE DAME, priority 2015, published 2018).

Target: nucleotide binding site (NBS) of antibody
Conditions: antibody NBS region; from reference [43]; read-out: Kd (binding affinity to the conserved NBS region)

Kd: 1 to 8 µM
Structure (SMILES): O=C(O)CCCc1c[nH]c2ccccc12 [IBA, indole-3-butyric acid]
